Results on 24 molecules are retold here after ChEMBL document CHEMBL4052726, “Design, synthesis, and biological evaluation of aryl N-methoxyamide derivatives as GPR119 agonists” (Bioorg Med Chem Lett, 2017).

For assay [1], the target named is T1, Glucose-dependent insulinotropic receptor (Homo sapiens) (UniProt Q8TDV5).
T1 sequence (whole entry): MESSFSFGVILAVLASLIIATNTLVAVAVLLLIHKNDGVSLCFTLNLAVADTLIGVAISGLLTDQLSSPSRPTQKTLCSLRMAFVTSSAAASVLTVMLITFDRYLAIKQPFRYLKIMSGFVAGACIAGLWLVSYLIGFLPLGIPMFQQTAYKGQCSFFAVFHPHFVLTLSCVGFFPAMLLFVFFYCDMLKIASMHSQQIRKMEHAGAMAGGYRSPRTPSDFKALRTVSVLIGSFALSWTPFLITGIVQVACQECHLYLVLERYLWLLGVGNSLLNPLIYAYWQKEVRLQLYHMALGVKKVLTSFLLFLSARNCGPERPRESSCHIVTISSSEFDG
Briefly: Activation of human GPR119 expressed in CHOK1 cells harboring CRE-luciferase at 1 uM after 6 hrs by luciferase reporter gene assay relative to GSK1292263. Format: functional, cell-based.

The target in assay [2] is T2, Glucose-dependent insulinotropic receptor (Homo sapiens, UniProt Q8TDV5).
T2 sequence (Q8TDV5 whole entry): T1 sequence (whole entry)
Briefly: Agonist activity at human GPR119 expressed in CHOK1 cells harboring CRE-luciferase after 6 hrs by luciferase reporter gene assay. Format: functional, cell-based.

Assay [3] has as its system Mus musculus. The assay is described as follows: Decrease in plasma glucose AUC in C57BL/6 mouse at 30 to 50 mg/kg administered orally followed by glucose challenge after 30 mins by OGTT. It is filed as functional, organism-based.
The target of assay [4] is T1, Glucose-dependent insulinotropic receptor (Homo sapiens). The assay is described as follows: Agonist activity at GPR119 in human NCI-H716 cells assessed as increase in forskolin-induced GLP-1 secretion by ELISA. Format: cell-based.

The structures appear in SMILES notation. Active and inactive are the calls of the source. The rule behind the calls is not given here.

Consider `CC(C)OC(=O)N1CCC(N(C)c2ncnc3c(-c4ccc(C(=O)NOCc5ccccc5)cc4)csc23)CC1`, for which the Activity in assay [1] came to 53%.
Same read-out and setting: the value for `CCc1cnc(N2CCC(N(C)c3ncnc4c(-c5ccc(C(=O)N(C)OC)c(F)c5)csc34)CC2)nc1` was 81%; that for `CN(c1ncnc2c(-c3ccc(C(=O)N4CCCCO4)cc3)csc12)C1CCN(C(=O)OC(C)(C)C)CC1` was 66%.
`CCc1cnc(N2CCC(Oc3ncnc4c(-c5ccc(C(=O)N(C)OC)cc5)csc34)CC2)nc1` gave an Activity in assay [1] of 82%. In addition, a half-maximal response in assay [2] (EC50) required 199 nM.
The matching figures for `CON(C)C(=O)c1ccc(-c2csc3c(N(C)C4CCN(C(=O)OC(C)C)CC4)ncnc23)cc1F`: 90% and 67 nM.
In assay [1], `CCc1cnc(N2CCC(N(C)c3ncnc4c(-c5ccc(C(=O)N(C)OC)cc5)csc34)CC2)nc1` displayed an Activity of 80%.
`CON(C)C(=O)c1ccc(-c2csc3c(OC4CCN(C(=O)OC(C)(C)C)CC4)ncnc23)cc1F`: in assay [1], the Activity was 88%. Further, the EC50 in assay [2] was 57 nM.
The matching figures for `CN(c1ncnc2c(-c3ccc(C(=O)NOCc4ccccc4)cc3)csc12)C1CCN(C(=O)OC(C)(C)C)CC1`: 81% and 83 nM.
Turning to `CONC(=O)c1ccc(-c2csc3c(N(C)C4CCN(C(=O)OC(C)(C)C)CC4)ncnc23)cc1`, the Activity in assay [1] came to 82%.
In the case of `CON(C)C(=O)c1ccc(-c2csc3c(N(C)C4CCN(C(=O)OC(C)C)CC4)ncnc23)cc1`, the Activity in assay [1] is 82%. The molecule also displayed an EC50 in assay [2] of 156 nM.
The molecule `CCONC(=O)c1ccc(-c2csc3c(N(C)C4CCN(C(=O)OC(C)(C)C)CC4)ncnc23)cc1` showed an Activity in assay [1] of 73%.
`CCc1cnc(N2CCC(COc3ccc(-c4ccc(C(=O)N(C)OC)cc4)nc3)CC2)nc1` had an Activity in assay [1] of 95%. In assay [2], this molecule displayed an EC50 of 319 nM.
For `CCc1cnc(N2CCC(COc3ccc(-c4ccc(C(=O)N(C)OC)c(F)c4)nc3)CC2)nc1`, the Activity in assay [1] amounted to 100%. Besides, the EC50 in assay [2] worked out at 77 nM. Further, the outcome in assay [3] and in assay [4] was Active.
For `CC(C)(C)OC(=O)N1CCC(COc2ccc(-c3ccc(C(=O)N4CCCCO4)cc3)nc2)CC1`, the Activity in assay [1] was 73%. In assay [2], this molecule came in with an EC50 of 321 nM.
The corresponding values for `CON(C)C(=O)c1ccc(-c2csc3c(N(C)C4CCN(C(=O)OC(C)(C)C)CC4)ncnc23)cc1F` are 87% and 53 nM.
The matching figures for `CON(C)C(=O)c1ccc(-c2ccc(OCC3CCN(C(=O)OC(C)C)CC3)cn2)cc1F`: 96% and 92 nM.
The corresponding values for `CON(C)C(=O)c1ccc(-c2ccc(OCC3CCN(C(=O)OC(C)(C)C)CC3)cn2)cc1F` are 114% and 73 nM.
In assay [1], `CON(C)C(=O)c1ccc(-c2ccc(OCC3CCN(C(=O)OC(C)(C)C)CC3)cn2)cc1` displayed an Activity of 106%. In assay [2], this molecule gave a half-maximal effective concentration (EC50) of 171 nM.
Turning to `CC(C)(C)OC(=O)N1CCC(COc2ccc(-c3ccc(C(=O)NOCc4ccccc4)cc3)nc2)CC1`, the Activity in assay [1] turned out to be 69%.
On to `CCc1cnc(N2CCC(Oc3ncnc4c(-c5ccc(C(=O)N(C)OC)c(F)c5)csc34)CC2)nc1`, for which the Activity in assay [1] was 100%. In assay [2], this molecule showed an EC50 of 105 nM.
The corresponding values for `CON(C)C(=O)c1ccc(-c2csc3c(OC4CCN(C(=O)OC(C)(C)C)CC4)ncnc23)cc1` are 100% and 64 nM.
In the case of `CCc1cnc(N2CCC(N(C)c3ncnc4c(-c5ccc(C(=O)NOCc6ccccc6)cc5)csc34)CC2)nc1`, in assay [1], the Activity was found to be 41%.
Take `CON(C)C(=O)c1ccc(-c2csc3c(N(C)C4CCN(C(=O)OC(C)(C)C)CC4)ncnc23)cc1`: in assay [1], the Activity stood at 105%. The same molecule gave a 50% effective concentration (EC50) in assay [2] of 98 nM.
The matching figures for `CON(C)C(=O)c1ccc(-c2ccc(OCC3CCN(C(=O)OC(C)C)CC3)cn2)cc1`: 80% and 155 nM.

One may read the EC50 as the concentration giving half of the maximal effect. A high value points to a less potent agent.
